Test results: the NIST ThermoML archive (doi:10.1021/je049685z)

Key:
[1] = Liquid
[2] = xn = mol fraction of the nth substance listed; conditions: Liquid, x1 = 1

CCCO [propan-1-ol]
mass density [kg/m3], [1]
Conditions | 100 kPa | 5000 kPa | 10000 kPa | 15000 kPa | 20000 kPa | 25000 kPa | 30000 kPa
303.15 K | 795.6 | 799.5 | 803.4 | 807 | 810.5 | 813.9 | 817.2
313.15 K | 787.6 | 791.6 | 795.7 | 799.5 | 803.2 | 806.7 | 810.1
323.15 K | 779.1 | 783.4 | 787.7 | 791.7 | 795.6 | 799.3 | 802.9
333.15 K | 770.6 | 775.1 | 779.6 | 783.9 | 787.9 | 791.8 | 795.5

CCCO [propan-1-ol] + Cc1ccccc1
mass density [kg/m3], [2]
Conditions | 100 kPa | 5000 kPa | 10000 kPa | 15000 kPa | 20000 kPa | 25000 kPa | 30000 kPa
303.15 K | 795.6 | 799.5 | 803.4 | 807 | 810.5 | 813.9 | 817.2
313.15 K | 787.6 | 791.6 | 795.7 | 799.5 | 803.2 | 806.7 | 810.1
323.15 K | 779.1 | 783.4 | 787.7 | 791.7 | 795.6 | 799.3 | 802.9
333.15 K | 770.6 | 775.1 | 779.6 | 783.9 | 787.9 | 791.8 | 795.5

Cc1ccccc1 [toluene]
mass density [kg/m3], [1]
Conditions | 100 kPa | 5000 kPa | 10000 kPa | 15000 kPa | 20000 kPa | 25000 kPa | 30000 kPa
303.15 K | 857.4 | 861.3 | 865.1 | 868.7 | 872.3 | 875.6 | 878.9
313.15 K | 848.1 | 852.1 | 856.2 | 860 | 863.7 | 867.2 | 870.7
323.15 K | 838.6 | 842.9 | 847.2 | 851.2 | 855.1 | 858.9 | 862.5
333.15 K | 829.2 | 833.7 | 838.2 | 842.5 | 846.6 | 850.5 | 854.3
